Experimental data: patent US5268462A, “Oleandomycin oximes” (Pliva Farmaceutska, priority 1990, dated 1993)
≈ marks a conversion by molar mass, not a printed value.

What was measured:
Assay type in all cases: cell-based
[1] = test system: E. coli ATCC 10536; assay: Antibacterial in vitro activity (MIC), standard strain; conditions: Escherichia coli, ATCC10536; E. coli ATCC 10536, standard strain; read-out: Minimal Inhibitory Concentration (MIC)
From the text: (§1) The antibacterial in vitro activity was evidenced on a series of standard and clinically isolated strains. The results are expressed as Minimal Inhibitory Concentration (MIC; μg/mL) and represented hereinbelow in Tables 1 and 2.

[2] = test system: Klebsiella pneum. NCTC-10499; assay: as above; conditions: NCTC10499; Klebsiella pneum. NCTC-10499, standard strain; read-out: Minimal Inhibitory Concentration (MIC)
From the text: as §1

[3] = test system: Pseud. aerug. NCTC-10490; assay: as above; conditions: Pseud. aerug. NCTC-10490, standard strain; read-out: Minimal Inhibitory Concentration (MIC)
From the text: as §1

[4] = test system: Sarcina lutea ATCC-9341; assay: as above; conditions: Micrococcus luteus, ATCC9341; Sarcina lutea ATCC-9341, standard strain; read-out: Minimal Inhibitory Concentration (MIC)
From the text: as §1

[5] = test system: Staph. aureus ATCC 6538-P; assay: as above; conditions: Staphylococcus aureus, ATCC6538, read-out: Minimal Inhibitory Concentration (MIC)
From the text: as §1

[6] = test system: Strept. faecalis ATCC-8043; assay: as above; conditions: Enterococcus faecalis, ATCC8043; Strept. faecalis ATCC-8043, standard strain; read-out: Minimal Inhibitory Concentration (MIC)
From the text: as §1

[7] = test system: H. Influenze 4028; assay: Antibacterial in vitro activity (MIC), clinical isolate; conditions: H. Influenze 4028, clinical isolate; read-out: Minimal Inhibitory Concentration (MIC)
From the text: as §1

[8] = test system: Staph. aureus 10097; assay: as above; conditions: Staphylococcus aureus; Staph. aureus 10097, clinical isolate; read-out: Minimal Inhibitory Concentration (MIC)
From the text: as §1

[9] = test system: Staph. aureus 10099; assay: as above; conditions: Staphylococcus aureus; Staph. aureus 10099, clinical isolate; read-out: Minimal Inhibitory Concentration (MIC)
From the text: as §1

[10] = test system: Staph. saprophyt. 3947; assay: as above; conditions: Staph. saprophyt. 3947, clinical isolate; read-out: Minimal Inhibitory Concentration (MIC)
From the text: as §1

[11] = test system: Strept. faecalis 10390; assay: as above; conditions: Enterococcus faecalis; Strept. faecalis 10390, clinical isolate; read-out: Minimal Inhibitory Concentration (MIC)
From the text: as §1

[12] = test system: Strept. pneumoniae 4050; assay: as above; conditions: Streptococcus pneumoniae; Strept. pneumoniae 4050, clinical isolate; read-out: Minimal Inhibitory Concentration (MIC)
From the text: as §1

[13] = test system: Sarcina lutea ATCC 9341; assay: Activity on Sarcina lutea ATCC 9341
[14] = test system: Strept. pneumoniae; assay: MIC (clinical isolates), Examples 1-3; conditions: Streptococcus pneumoniae
From the text: as §1

[15] = test system: Strept. serol. group A; assay: MIC (clinical isolates), Examples 1-3
From the text: as §1

Row | MIC [1] [µg/mL] | MIC [2] [µg/mL] | MIC [3] [µg/mL] | MIC [4] [µg/mL] | MIC [5] [µg/mL] | MIC [6] [µg/mL] | MIC [7] [µg/mL] | MIC [8] [µg/mL] | MIC [9] [µg/mL] | MIC [10] [µg/mL] | MIC [11] [µg/mL] | MIC [12] [µg/mL] | MIC [14] [µg/mL] | MIC [15] [µg/mL] | SMILES | Activity [13] [u/mg]
1 | 6.2 (≈ 9 µM) | 50 (≈ 72.6 µM) | 50 (≈ 72.6 µM) | 0.2 (≈ 0.29 µM) | 0.2 (≈ 0.29 µM) | 0.2 (≈ 0.29 µM) | 0.4 (≈ 0.581 µM) | 0.4 (≈ 0.581 µM) | 0.4 (≈ 0.581 µM) | 1.6 (≈ 2.32 µM) | 0.8 (≈ 1.16 µM) | 0.4 (≈ 0.581 µM) | – | – | COC1CC(OC2C(C)C(=O)OC(C)C(C)C(O)C(C)C(=NO)C(C)CC(C)C(OC3OC(C)CC(N(C)C)C3O)C2C)OC(C)C1O (single isomer, unassigned) [Ie, 8-methyl-oleandomycin oxime] | 657
2 | – | – | – | – | – | – | – | – | – | – | – | – | 1 (≈ 1.46 µM) | 1 (≈ 1.46 µM) | C=C1CC(C)C(OC2OC(C)CC(N(C)C)C2O)C(C)C(OC2CC(OC)C(O)C(C)O2)C(C)C(=O)OC(C)C(C)C(O)C(C)C1=NO (stereo not drawn) [Ic, 8-METHYLENE-OLEANDOMYCIN OXIME] | –
3 | – | – | – | – | – | – | – | – | – | – | – | – | 0.5 (≈ 0.711 µM) | 0.5 (≈ 0.711 µM) | COC1CC(OC2C(C)C(=O)OC(C)C(C)C(O)C(C)C(=NO)C3(CO3)CC(C)C(OC3OC(C)CC(N(C)C)C3O)C2C)OC(C)C1O (stereo not drawn) [Ia, OLEANDOMYCIN OXIME] | –
4 | 25 | > 50 | > 50 | 0.2 | 0.4 | 0.8 | – | 0.8 | 0.8 | 1.6 | 3.1 | 1.6 | – | – | CO[C@H]1C[C@H](O[C@H]2[C@H](C)[C@@H](O[C@@H]3O[C@H](C)C[C@H](N(C)C)[C@H]3O)[C@@H](C)C[C@@]3(CO3)C(=O)[C@H](C)[C@@H](O)[C@@H](C)[C@@H](C)OC(=O)[C@@H]2C)O[C@@H](C)[C@@H]1O [oleandomycin phosphate, reference compound] | –
5 | – | – | – | – | – | – | – | – | – | – | – | – | 2 (≈ 2.92 µM) | 1 (≈ 1.46 µM) | COC1CC(OC2C(C)C(=O)OC(C)C(C)C=C(C)C(=NO)C3(CO3)CC(C)C(OC3OC(C)CC(N(C)C)C3O)C2C)OC(C)C1O (stereo not drawn) [Ib, ANHYDRO OLEANDOMYCIN OXIME] | –
